Laboratory results published in the supplement of paper PMC11208160.

Assay: recombinant barcode read abundance after kanamycin selection (control-corrected) (log10(CPM+1)); higher = more efficient recombination; sequences stand for … in AGTGCAGAGAAAATCGGCCAGTTTTCTCTGCCTGCAGTCCGCATGCCGT…AGATTTATGCAGCGGACTGCCTTTCTCCCAAAGTGATAAACCGGACAGTATCATGGACCGGTTTTCCCGGTAATCCGTATTTGCAAGGTTGGTTTCACT; site = the 11-nt target
Procedure: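 Pooled E. coli target-specificity screen for the IS621 bridge recombinase. Each library plasmid pairs an 11-nt target (CT core) with a bridge RNA whose target-binding loop (9-nt LTG + 4-nt RTG) is reprogrammed; the rest of the 177-nt WT IS621 bridge RNA scaffold is fixed. The plasmid is co-electroporated with a WT donor plasmid; recombinase is induced with 0.1 mM IPTG and recombinants are selected on kanamycin. Recombinant barcodes are sequenced, converted to CPM, averaged over two biological replicates and corrected by the unselected control CPM. Molecule = full bridge RNA written as DNA: LTG = specificity nt 1-9, RTG = reverse complement of specificity nt 8-11, in the WT scaffold.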
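Note: IS621 recombinase and bridge RNA in Escherichia coli cells.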

Sequence | recombinant barcode read abundance (log10)
AATGTGTCTTGGGTTCTAACCTGTTGCCT (site AAGGTGTCTAG) | 1.01
AATGTGTCTTGGGTTCTAACCTGTTGCCT (site AATGTGTCTAG) | 2.59
AATTAGACTTGGGTTCTAACCTGTTGCCT (site AATTAGACTAG) | 1.12
AATTAGACTTGGGTTCTAACCTGTTGCCT (site CATTAGACTAG) | 0.152
AATTAGACTTGGGTTCTAACCTGTTGCCT (site GATTAGACTAG) | 0.226
AATTAGACTTGGGTTCTAACCTGTTGCCT (site TATTAGACTAG) | 0.125
AATTAGCCTTGGGTTCTAACCTGTTGCCT (site AATTAGCCTAG) | 0.488
AATTAGCCTTGGGTTCTAACCTGTTGCCT (site GTGAGCACTTA) | 0.185
AATTGGCCTTGGGTTCTAACCTGTTGCTT (site AATTGGCCTAA) | 0.344
AATTGGCCTTGGGTTCTAACCTGTTGCTT (site GATAGGCCTAA) | 0.37
AATTTAGCTTGGGTTCTAACCTGTTGCCT (site AATTAAGCTAG) | 0.172
AATTTAGCTTGGGTTCTAACCTGTTGCCT (site AATTCAGCTAG) | 0.169
AATTTAGCTTGGGTTCTAACCTGTTGCCT (site AATTGAGCTAG) | 0.0396
AATTTAGCTTGGGTTCTAACCTGTTGCCT (site AATTTAGCTAG) | 0.244
ACAAAACCTTGGGTTCTAACCTGTTGCCT (site ACAAAACCTAG) | 0.171
ACAAAACCTTGGGTTCTAACCTGTTGCCT (site ACAAACCCTAG) | 0.461
ACAAAACCTTGGGTTCTAACCTGTTGCCT (site ACAAAGCCTAG) | 0.0848
ACAAAACCTTGGGTTCTAACCTGTTGCCT (site ACAAATCCTAG) | 0.0655
ACAAAAGCTTGGGTTCTAACCTGTTGCGG (site ACAAAAGCTCC) | 1.59
ACAAAAGCTTGGGTTCTAACCTGTTGCGG (site ACAAAGGCTCC) | 0.514
ACAAAGACTTGGGTTCTAACCTGTTGCCT (site ACAAAGACTAG) | 0.847

Sequence | recombinant barcode read abundance (log10)
ACAAAGACTTGGGTTCTAACCTGTTGCCT (site ACAAGGGCTAG) | 0.0359
ACAACCACTTGGGTTCTAACCTGTTGCCT (site ACAACCACTAG) | 0.235
ACAACCACTTGGGTTCTAACCTGTTGCCT (site ACAACGACTAG) | 0.0258
ACAACCTCTTGGGTTCTAACCTGTTGCCG (site ACAACCTCTCG) | 1.23
ACAACCTCTTGGGTTCTAACCTGTTGCCG (site TAGGGTACTGC) | 0
ACAAGCACTTGGGTTCTAACCTGTTGCCT (site ACAAGCACTAG) | 1.46
ACAAGCACTTGGGTTCTAACCTGTTGCCT (site ACCATCACTAG) | 0.2
ACAAGGGCTTGGGTTCTAACCTGTTGCCT (site ACAAAGACTAG) | 0.261
ACAAGGGCTTGGGTTCTAACCTGTTGCCT (site ACAAGGGCTAG) | 0.547
ACAAGTCCTTGGGTTCTAACCTGTTGCGG (site ACAAGTCCTCC) | 1.74
ACAAGTCCTTGGGTTCTAACCTGTTGCGG (site ATAAGTCCTTC) | 0.0466
ACAATGTCTTGGGTTCTAACCTGTTGCGG (site ACAATGTCTCC) | 1.27
ACAATGTCTTGGGTTCTAACCTGTTGCGG (site ACACTGTCTCC) | 0.148
ACAATGTCTTGGGTTCTAACCTGTTGCGG (site ACAGTGTCTCC) | 0.192
ACAATGTCTTGGGTTCTAACCTGTTGCGG (site ACATTGTCTCC) | 0.427
ACACACTCTTGGGTTCTAACCTGTTGCTG (site ACACACTCTCA) | 1.97
ACACACTCTTGGGTTCTAACCTGTTGCTG (site ACACTCCCTCA) | 0.0463
ACACCACCTTGGGTTCTAACCTGTTGCCT (site AAACCACCTAG) | 0.585
ACACCACCTTGGGTTCTAACCTGTTGCCT (site ACACCACCTAG) | 0.0741
ACACCACCTTGGGTTCTAACCTGTTGCCT (site AGACCACCTAG) | 0.179
ACACCACCTTGGGTTCTAACCTGTTGCCT (site ATACCACCTAG) | 0.0171

Sequence | recombinant barcode read abundance (log10)
ACACGCCCTTGGGTTCTAACCTGTTGCAC (site ACACGCCCTGT) | 0.333
ACACGCCCTTGGGTTCTAACCTGTTGCAC (site AGACTCCCTGT) | 0.0104
ACACGGCCTTGGGTTCTAACCTGTTGCCG (site ACACGGCCTCG) | 0.428
ACACGGCCTTGGGTTCTAACCTGTTGCCG (site TAGTACGCTAA) | 0.145
ACACTAACTTGGGTTCTAACCTGTTGCCT (site AAACTAACTAG) | 0.071
ACACTAACTTGGGTTCTAACCTGTTGCCT (site ACACTAACTAG) | 0.404
ACACTAACTTGGGTTCTAACCTGTTGCCT (site AGACTAACTAG) | 0.0933
ACACTAACTTGGGTTCTAACCTGTTGCCT (site ATACTAACTAG) | 0
ACACTGGCTTGGGTTCTAACCTGTTGCCT (site ACACTGGCTAG) | 0.987
ACACTGGCTTGGGTTCTAACCTGTTGCCT (site ACCCTGGCTAG) | 0.0877
ACACTGGCTTGGGTTCTAACCTGTTGCCT (site ACGCTGGCTAG) | 0.025
ACACTGGCTTGGGTTCTAACCTGTTGCCT (site ACTCTGGCTAG) | 0
ACAGAGACTTGGGTTCTAACCTGTTGCAC (site ACAGAGACTGT) | 1.76
ACAGAGACTTGGGTTCTAACCTGTTGCAC (site ACAGAGACTTA) | 0.183
ACAGATTCTTGGGTTCTAACCTGTTGCCT (site ACAGATTCTAG) | 1.73
ACAGATTCTTGGGTTCTAACCTGTTGCCT (site ATAGAGTCTAG) | 0.0143
ACAGGAGCTTGGGTTCTAACCTGTTGCGG (site ACACGACCTCC) | 0.154
ACAGGAGCTTGGGTTCTAACCTGTTGCGG (site ACAGGAGCTCC) | 2.61
ACAGGATCTTGGGTTCTAACCTGTTGCTT (site ACAGAATCTAG) | 0.55
ACAGGATCTTGGGTTCTAACCTGTTGCTT (site ACAGGATCTAA) | 2.18
ACAGGTTCTTGGGTTCTAACCTGTTGCCT (site AAAGGTTCTAG) | 0.0508

Sequence | recombinant barcode read abundance (log10)
ACAGGTTCTTGGGTTCTAACCTGTTGCCT (site ACAGGTTCTAG) | 2.24
ACAGGTTCTTGGGTTCTAACCTGTTGCCT (site AGAGGTTCTAG) | 0.283
ACAGGTTCTTGGGTTCTAACCTGTTGCCT (site ATAGGTTCTAG) | 0.0396
ACAGTAGCTTGGGTTCTAACCTGTTGCCG (site ACAGTAGCTCC) | 0.189
ACAGTAGCTTGGGTTCTAACCTGTTGCCG (site ACAGTAGCTCG) | 0.862
ACATACACTTGGGTTCTAACCTGTTGCCT (site ACATACACTAG) | 0.991
ACATACACTTGGGTTCTAACCTGTTGCCT (site ACCTACCCTAG) | 0.298
ACATCAACTTGGGTTCTAACCTGTTGCCT (site ACATCAACTAG) | 0.807
ACATCAACTTGGGTTCTAACCTGTTGCCT (site ACCTCAACTAG) | 0.0149
ACATCAACTTGGGTTCTAACCTGTTGCCT (site ACGTCAACTAG) | 0.0953
ACATCAACTTGGGTTCTAACCTGTTGCCT (site ACTTCAACTAG) | 0.0926
ACATCTACTTGGGTTCTAACCTGTTGCTA (site ACATCTACTTA) | 0.145
ACATCTACTTGGGTTCTAACCTGTTGCTA (site ACTTCTACTTA) | 0.0475
ACATGGTCTTGGGTTCTAACCTGTTGCGT (site ACATGGTCTAC) | 2.92
ACATGGTCTTGGGTTCTAACCTGTTGCGT (site ACTGGGTCTAC) | 0.115
ACATGTCCTTGGGTTCTAACCTGTTGCCT (site ACATGTCCTAA) | 0.0846
ACATGTCCTTGGGTTCTAACCTGTTGCCT (site ACATGTCCTAC) | 0.0127
ACATGTCCTTGGGTTCTAACCTGTTGCCT (site ACATGTCCTAG) | 0.828
ACATGTCCTTGGGTTCTAACCTGTTGCCT (site ACATGTCCTAT) | 0.00753
